pIC50: −log10 of the molar value.

Eleven molecules from US8084469B2, “Substituted piperidines” (Bayer Pharma Aktiengesellschaft, priority 2009, dated 2011) can be followed below.

This assay has as its target T1, human protease activated receptor 1 (PAR-1) (Homo sapiens, UniProt P25116).
T1 construct: the cell stably expresses the endogenous human PAR-1 receptor; endogenous in cells; host or cells: HEK293-derived recombinant cell line; only the aequorin reporter is recombinant
T1 sequence (P25116 22-425): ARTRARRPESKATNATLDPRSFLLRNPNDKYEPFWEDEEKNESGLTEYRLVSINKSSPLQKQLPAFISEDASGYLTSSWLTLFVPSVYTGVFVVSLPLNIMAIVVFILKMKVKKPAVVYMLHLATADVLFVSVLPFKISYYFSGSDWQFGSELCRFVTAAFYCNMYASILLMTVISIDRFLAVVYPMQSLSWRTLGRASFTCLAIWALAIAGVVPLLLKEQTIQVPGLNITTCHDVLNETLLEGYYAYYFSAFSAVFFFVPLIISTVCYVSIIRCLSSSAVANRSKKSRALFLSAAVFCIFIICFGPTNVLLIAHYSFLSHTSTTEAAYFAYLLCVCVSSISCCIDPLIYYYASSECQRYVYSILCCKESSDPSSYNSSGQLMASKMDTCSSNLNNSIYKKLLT
In words: Cellular functional in vitro test (aequorin luminescence in recombinant HEK293 PAR-1 test cell). To be noted: PAR-1 test cell (HEK293-derived), PAR-1 agonist at EC50 concentration, aequorin light signal. It counts as cell-based. The source says:
Cellular Functional In Vitro Test
A recombinant cell line is used to identify antagonists of the human protease activated receptor 1 (PAR-1) and to quantify the activity of the substances described herein. The cell is originally derived from a human embryonal kidney cell (HEK293; ATCC: American Type Culture Collection, Manassas, Va. 20108, USA). The test cell line constitutively expresses a modified form of the calcium-sensitive photoprotein aequorin which, after reconstitution with the cofactor coelenterazine, emits light when the free calcium concentration in the inner mitochondrial compartment is increased (Rizzuto R, Simpson A W, Brini M, Pozzan T.; Nature 1992, 358, 325-327). Additionally, the cell stably expresses the endogenous human PAR-1 receptor and the endogenous purinergic receptor P2Y2. The resulting PAR-1 test cell responds to stimulation of the endogenous PAR-1 or P2Y2 receptor with an intracellular release of calcium ions, which can be quantified through the resulting aequorin luminescence with a suitable luminometer (Milligan G, Marshall F, Rees S, Trends in Pharmacological Sciences 1996, 17, 235-237).
For the testing of the substance specificity, the effect thereof after activation of the endogenous PAR-1 receptor is compared with the effect after activation of the endogenous purinergic P2Y2 receptor which utilizes the same intracellular signal path.
Test procedure: The cells are plated out two days (48 h) before the test in culture medium (DMEM F12, supplemented with 10% FCS, 2 mM glutamine, 20 mM HEPES, 1.4 mM pyruvate, 0.1 mg/ml gentamycin, 0.15% Na bicarbonate; BioWhittaker Cat.# BE04-687Q; B-4800 Verviers, Belgium) in 384-well microtitre plates and kept in a cell incubator (96% atmospheric humidity, 5% v/v CO2, 37° C.). On the day of the test, the culture medium is replaced by a tyrode solution (in mM: 140 sodium chloride, 5 potassium chloride, 1 magnesium chloride, 2 calcium chloride, 20 glucose, 20 HEPES), which additionally contains the cofactor coelenterazine (25 μM) and glutathione (4 mM), and the microtitre plate is then incubated for a further 3-4 hours. The test substances are then pipetted onto the microtitre plate, and 5 minutes after the transfer of the test substances into the wells of the microtitre plate the plate is transferred into the luminometer, a PAR-1 agonist concentration which corresponds to EC50 is added and the resulting light signal is immediately measured in the luminometer. To distinguish an antagonist substance action from a toxic action, the endogenous purinergic receptor is immediately subsequently activated with agonist (ATP, final concentration 10 μM) and the resulting light signal is measured.
For `CCN(CC)c1noc(C2CC(c3ccc(C(F)(F)F)cc3)CN(C(=O)N3CCOCC3)C2)n1` (single isomer, unassigned) [Example 6, {3-[3-(Diethylamino)-1,2,4-oxadiazol-5-yl]-5-[4-(trifluoromethyl)phenyl]piperidin-1-yl}-(morpholin-4-yl)methanone], the pIC50 (as a rule, the IC50 on a negative log10 scale, so that one unit is a factor of ten) was 8.06.
In the case of `CC(C)Oc1noc(C2CC(c3ccc(OC(F)(F)F)cc3)CN(C(=O)N3CCSCC3)C2)n1` (racemic) [Example 33, {3-(3-Isopropoxy-1,2,4-oxadiazol-5-yl)-5-[4-(trifluoromethoxy)phenyl]piperidin-1-yl}(thiomorpholin-4-yl)methanone], the pIC50 was 8.77.
For `CCOc1noc(C2CC(c3ccc(CC)c(F)c3)CN(C(=O)N3CCS(=O)(=O)CC3)C2)n1` (racemic) [Example 101, (1,1-Dioxidothiomorpholin-4-yl)[3-(3-ethoxy-1,2,4-oxadiazol-5-yl)-5-(4-ethyl-3-fluorophenyl)-piperidin-1-yl]methanone], the pIC50 was 8.20.
Turning to `CCOc1noc(C2CC(c3ccc(CC(F)(F)F)cc3)CN(C(=O)N3CCS(=O)(=O)CC3)C2)n1` (single isomer, unassigned) [Example 69, (1,1-Dioxidothiomorpholin-4-yl){3-(3-ethoxy-1,2,4-oxadiazol-5-yl)-5-[4-(2,2,2-trifluoroethyl)-phenyl]piperidin-1-yl}methanone], the negative-log IC50 (pIC50) was 7.68.
`CCc1ccc(C2CC(c3nc(OCCOC)no3)CN(C(=O)N3CCS(=O)(=O)CC3)C2)cc1` (single isomer, unassigned) [Example 63, (1,1-Dioxidothiomorpholin-4-yl){3-(4-ethylphenyl)-5-[3-(2-methoxyethoxy)-1,2,4-oxadiazol-5-yl]-piperidin-1-yl}methanone]: the pIC50 is 7.69.
For `CCOc1noc(C2CC(c3ccc(CC)cc3)CN(C(=O)N3CC(O)C3)C2)n1` (racemic) [Example 35, [3-(3-Ethoxy-1,2,4-oxadiazol-5-yl)-5-(4-ethylphenyl)piperidin-1-yl](3-hydroxyazetidin-1-yl)methanone], the pIC50 is 7.45.
Regarding `CCOc1noc(C2CC(c3ccc(CC(F)(F)F)cc3)CN(C(=O)N3CC[S+]([O-])CC3)C2)n1` (single isomer, unassigned) [Example 66, {3-(3-Ethoxy-1,2,4-oxadiazol-5-yl)-5-[4-(2,2,2-trifluoroethyl)phenyl]piperidin-1-yl}(1-oxidothio-morpholin-4-yl)methanone], the pIC50 is 7.19.
The result for `CCOc1noc(C2CC(c3ccc(CC(F)(F)F)c(F)c3)CN(C(=O)N3CC[S+]([O-])CC3)C2)n1` (single isomer, unassigned) [Example 80, {3-(3-Ethoxy-1,2,4-oxadiazol-5-yl)-5-[3-fluoro-4-(2,2,2-trifluoroethyl)phenyl]piperidin-1-yl}(1-oxidothiomorpholin-4-yl)methanone] reads 8.29; that for `CCOc1noc(C2CC(c3ccc(CC(F)(F)F)cc3)CN(C(=O)N3CCS(=O)(=O)CC3)C2)n1` (racemic) [Example 67, (1,1-Dioxidothiomorpholin-4-yl){3-(3-ethoxy-1,2,4-oxadiazol-5-yl)-5-[4-(2,2,2-trifluoroethyl)-phenyl]piperidin-1-yl}methanone], 7.92; that for `O=C(N1CCOCC1)N1CC(c2ccc(C(F)(F)F)cc2)CC(c2nc(NC3CC3)no2)C1` (racemic) [Example 9, {3-[3-(Cyclopropylamino)-1,2,4-oxadiazol-5-yl]-5-[4-(trifluoromethyl)phenyl]piperidin-1-yl}-(morpholin-4-yl)methanone], 7.84.
Consider `CCN(CCO)c1noc(C2CC(c3ccc(C(F)(F)F)cc3)CN(C(=O)N3CCOCC3)C2)n1` (racemic) [Example 16, (3-{3-[Ethyl(2-hydroxyethyl)amino]-1,2,4-oxadiazol-5-yl}-5-[4-(trifluoromethyl)phenyl]piperidin-1-yl)(morpholin-4-yl)methanone], for which the pIC50 is 7.16.
